Source: US11518981B2, “Methods of enhancing engraftment activity of hematopoietic stem cells” (CHILDREN'S HOSPITAL MEDICAL CENTER, priority 2017, dated 2022)

Test system: human CD34^+ cells
Test: GFP marking in human grafts of NSG mice
Assay type: in vivo
Conditions: limiting dilution transplant; also long-termed secondary human grafts
Source text: NOD.Cg-Prkdcscid Il2rgtm1Wjl/SzJ (NSG) mice were purchased from The Jackson Laboratory (Bar Harbor, Me.). All animals were bred and maintained in a specific pathogen-free environment and all experiments were approved by the Institutional Animal Care and Use (IACUC) Committee. Male and female NSG mice aged 8 to 14 weeks old were fed doxycycline chow (TestDiet; Modified Prolab RMH-1500 with 0.0625% doxycycline) a week prior to, during and for 2 weeks post irradiation. Human engraftment was analyzed in bone marrow (BM), via BM aspirates performed at 6 and 12 weeks from left and right femurs. After sacrifice at 24 weeks, marrow from all of the primary mice (1 T) was harvested. Peripheral blood analysis was also performed in some experiments. Secondary transplants (2 T) were performed after mouse CD45^+ cells were depleted from BM harvested from each 1 T mouse separately, using Biotin Rat Anti-Mouse CD45 (BD Biosciences 553078) and Streptavidin Particles Plus-DM (BD Biosciences 557812) and injected into one irradiated (280 cGy) secondary NSG mouse. […] Total ROS and mitochondrial specific ROS were detected using 10 μM CM-H2DCFDA (ThermoFisher Scientific C6827) and 5 μM MITOSOXTM Red (Red Mitochondrial Superoxide Indicator) (ThermoFisher Scientific M36008) respectively, following manufacturer's instructions.

## Cc1ccc(-n2nc(C(C)(C)C)cc2NC(=O)Nc2ccc(OCCN3CCOCC3)c3ccccc23)cc1 [p38i, 1-[5-tert-butyl-2-(4-methylphenyl)pyrazol-3-yl]-3-[4-(2-morpholin-4-ylethoxy)naphthalen-1-yl]urea]
  GFP marking: did not have any effect
